This is an account of results in ChEMBL document CHEMBL5260810, “Inhibition of bromodomain-containing protein 9 for the prevention of epigenetically-defined drug resistance” (Bioorg Med Chem Lett, 2017).

For orientation: IC50 means the point on the concentration scale where inhibition reaches its midpoint. One may read the Kd as a measure of binding affinity in units of concentration. Higher therefore signals lower affinity. In general, inhibition refers to the relative decrease from the control value, in per cent.

The target in assay [1] is Transcription initiation factor TFIID subunit 1 (Homo sapiens, UniProt P21675). In words: Displacement of biotinylated small-molecule ligand from recombinant His-tagged TAF1 bromodomain 2 (unknown origin) measured after 10 mins by TR-FRET assay.
Assay [2] can be described thus: Cytotoxicity against human KMS-21BM cells measured after 8 days. The format is functional, cell-based. The following applies: 192 h.
Assay [3] in a line: Cytotoxicity against human NCI-H1339 cells measured after 8 days. In kind it is functional, cell-based. The following applies: NCI-H1339, 192 h.
Another assay has as its system KARPAS-422. In words: Cytotoxicity against human KARPAS-422 cells measured after 8 days. In kind it is functional, cell-based. The following applies: KARPAS-422, 192 h.
In the next assay the test system is NCI-H23. The assay is described as follows: Cytotoxicity against human NCI-H23 cells measured after 8 days. The format is functional, cell-based. The following applies: NCI-H23, 192 h.
Another assay deals with SCC-3. The assay is described as follows: Cytotoxicity against human SCC-3 cells measured after 8 days. The format is functional, cell-based. The conditions noted are these: SCC-3, 192 h.
For a further assay, the system named is NCI-H82. The assay is described as follows: Cytotoxicity against human NCI-H82 cells measured after 8 days. The format is functional, cell-based. The following applies: NCI-H82, 192 h.
Another assay deals with HCC1806. The assay is described as follows: Cytotoxicity against human HCC1806 cells measured after 8 days. The conditions noted are these: HCC1806, 192 h. The format is functional, cell-based.
The next assay concerns HDQ-P1. The assay is described as follows: Cytotoxicity against human HDQ-P1 cells measured after 8 days. The conditions noted are these: HDQ-P1, 192 h. The format is functional, cell-based.
Assay [4] can be described thus: Cytotoxicity against human ATRFLOX cells measured after 8 days. The following applies: 192 h. The format is functional, cell-based.
The next assay relates to LS180. In words: Cytotoxicity against human LS180 cells measured after 8 days. The format is functional, cell-based. The following applies: LS180, 192 h.
The next assay relates to WiDr. In words: Cytotoxicity against human WiDr cells measured after 8 days. The format is functional, cell-based. The following applies: 192 h.
The next assay deals with GTL 16 cell line. The assay is described as follows: Cytotoxicity against human GTL 16 cell line measured after 8 days. The format is functional, cell-based. The conditions noted are these: GTL 16, 192 h.
The next assay relates to CAL-12T. The assay is described as follows: Cytotoxicity against human CAL-12T cells measured after 8 days. The following applies: 192 h. The format is functional, cell-based.
The target of assay [5] is Bromodomain-containing protein 3 (Homo sapiens, UniProt Q15059). The assay is described as follows: Binding affinity to BRD3 bromodomain 1/2 (unknown origin) by BROMOscan assay.
For assay [6], the target named is T1, Myotonin-protein kinase (Homo sapiens) (UniProt Q09013).
T1 sequence (whole entry): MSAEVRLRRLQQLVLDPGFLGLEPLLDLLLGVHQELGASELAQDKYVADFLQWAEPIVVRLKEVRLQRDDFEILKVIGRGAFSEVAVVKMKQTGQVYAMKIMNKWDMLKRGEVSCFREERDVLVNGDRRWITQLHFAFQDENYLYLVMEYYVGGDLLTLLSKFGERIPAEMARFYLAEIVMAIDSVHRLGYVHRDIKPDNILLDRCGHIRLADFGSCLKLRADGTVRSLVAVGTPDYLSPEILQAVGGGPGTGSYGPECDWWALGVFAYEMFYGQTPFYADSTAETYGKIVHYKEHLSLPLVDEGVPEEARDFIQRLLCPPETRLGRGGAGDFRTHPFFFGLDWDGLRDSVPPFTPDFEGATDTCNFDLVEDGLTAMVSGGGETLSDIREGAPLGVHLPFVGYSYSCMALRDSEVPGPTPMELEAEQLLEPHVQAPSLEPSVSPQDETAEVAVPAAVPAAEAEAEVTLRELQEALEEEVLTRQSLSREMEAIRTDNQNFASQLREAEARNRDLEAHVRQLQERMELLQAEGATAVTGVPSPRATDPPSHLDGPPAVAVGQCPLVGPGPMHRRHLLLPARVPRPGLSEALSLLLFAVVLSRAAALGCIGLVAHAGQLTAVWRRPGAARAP
In words: Inhibition of DMPK (unknown origin) at 1 uM relative to control.

The target in assay [7] is Misshapen-like kinase 1 (Homo sapiens) (UniProt Q8N4C8). The assay is described as follows: Inhibition of Mink1 (unknown origin) at 1 uM relative to control.
In assay [8] the target is T2, Endothelin-1 receptor (Homo sapiens) (UniProt P25101).
T2 sequence (whole entry): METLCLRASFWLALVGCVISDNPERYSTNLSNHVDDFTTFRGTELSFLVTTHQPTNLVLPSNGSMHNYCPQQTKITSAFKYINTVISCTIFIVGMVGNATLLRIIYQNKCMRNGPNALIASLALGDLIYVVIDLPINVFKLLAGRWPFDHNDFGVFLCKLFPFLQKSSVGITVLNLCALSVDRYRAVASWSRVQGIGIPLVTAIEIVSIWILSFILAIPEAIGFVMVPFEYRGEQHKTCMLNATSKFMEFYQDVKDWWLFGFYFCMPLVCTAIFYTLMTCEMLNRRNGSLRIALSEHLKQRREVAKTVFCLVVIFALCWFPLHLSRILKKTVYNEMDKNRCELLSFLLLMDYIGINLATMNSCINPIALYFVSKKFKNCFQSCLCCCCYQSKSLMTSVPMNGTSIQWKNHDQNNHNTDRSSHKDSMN
The assay is described as follows: Displacement of [125I]-endothelin-1 from human recombinant ETA receptor at 10 uM after 120 mins by scintillation counting analysis relative to control.

Assay [9] addresses T3, Peroxisome proliferator-activated receptor gamma (Homo sapiens) (UniProt P37231).
T3 sequence (whole entry): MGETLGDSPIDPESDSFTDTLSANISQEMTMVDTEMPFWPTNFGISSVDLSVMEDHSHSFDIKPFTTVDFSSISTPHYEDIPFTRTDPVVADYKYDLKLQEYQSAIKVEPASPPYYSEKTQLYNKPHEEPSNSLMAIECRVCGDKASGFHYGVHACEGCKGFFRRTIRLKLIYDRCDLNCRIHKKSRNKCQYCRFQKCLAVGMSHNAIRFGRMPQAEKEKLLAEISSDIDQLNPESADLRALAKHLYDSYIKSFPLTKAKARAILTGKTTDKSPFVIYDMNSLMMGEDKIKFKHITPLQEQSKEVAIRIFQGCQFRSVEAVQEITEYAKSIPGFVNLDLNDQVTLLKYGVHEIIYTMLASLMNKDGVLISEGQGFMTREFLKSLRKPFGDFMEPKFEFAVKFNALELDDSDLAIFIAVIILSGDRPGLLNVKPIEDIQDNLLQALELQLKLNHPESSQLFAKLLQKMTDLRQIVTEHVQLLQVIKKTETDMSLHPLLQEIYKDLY
The assay is described as follows: Inhibition of human PPARgamma at 10 uM relative to control.

The species named for a further assay is Rattus norvegicus. The assay is described as follows: Displacement of [3H]batrachotoxinin from rat brain sodium voltage gated ion channel site 2 at 10 uM after 60 mins by scintillation counting analysis relative to control.

Sequence of Transcription initiation factor TFIID subunit 1 (P21675 whole entry): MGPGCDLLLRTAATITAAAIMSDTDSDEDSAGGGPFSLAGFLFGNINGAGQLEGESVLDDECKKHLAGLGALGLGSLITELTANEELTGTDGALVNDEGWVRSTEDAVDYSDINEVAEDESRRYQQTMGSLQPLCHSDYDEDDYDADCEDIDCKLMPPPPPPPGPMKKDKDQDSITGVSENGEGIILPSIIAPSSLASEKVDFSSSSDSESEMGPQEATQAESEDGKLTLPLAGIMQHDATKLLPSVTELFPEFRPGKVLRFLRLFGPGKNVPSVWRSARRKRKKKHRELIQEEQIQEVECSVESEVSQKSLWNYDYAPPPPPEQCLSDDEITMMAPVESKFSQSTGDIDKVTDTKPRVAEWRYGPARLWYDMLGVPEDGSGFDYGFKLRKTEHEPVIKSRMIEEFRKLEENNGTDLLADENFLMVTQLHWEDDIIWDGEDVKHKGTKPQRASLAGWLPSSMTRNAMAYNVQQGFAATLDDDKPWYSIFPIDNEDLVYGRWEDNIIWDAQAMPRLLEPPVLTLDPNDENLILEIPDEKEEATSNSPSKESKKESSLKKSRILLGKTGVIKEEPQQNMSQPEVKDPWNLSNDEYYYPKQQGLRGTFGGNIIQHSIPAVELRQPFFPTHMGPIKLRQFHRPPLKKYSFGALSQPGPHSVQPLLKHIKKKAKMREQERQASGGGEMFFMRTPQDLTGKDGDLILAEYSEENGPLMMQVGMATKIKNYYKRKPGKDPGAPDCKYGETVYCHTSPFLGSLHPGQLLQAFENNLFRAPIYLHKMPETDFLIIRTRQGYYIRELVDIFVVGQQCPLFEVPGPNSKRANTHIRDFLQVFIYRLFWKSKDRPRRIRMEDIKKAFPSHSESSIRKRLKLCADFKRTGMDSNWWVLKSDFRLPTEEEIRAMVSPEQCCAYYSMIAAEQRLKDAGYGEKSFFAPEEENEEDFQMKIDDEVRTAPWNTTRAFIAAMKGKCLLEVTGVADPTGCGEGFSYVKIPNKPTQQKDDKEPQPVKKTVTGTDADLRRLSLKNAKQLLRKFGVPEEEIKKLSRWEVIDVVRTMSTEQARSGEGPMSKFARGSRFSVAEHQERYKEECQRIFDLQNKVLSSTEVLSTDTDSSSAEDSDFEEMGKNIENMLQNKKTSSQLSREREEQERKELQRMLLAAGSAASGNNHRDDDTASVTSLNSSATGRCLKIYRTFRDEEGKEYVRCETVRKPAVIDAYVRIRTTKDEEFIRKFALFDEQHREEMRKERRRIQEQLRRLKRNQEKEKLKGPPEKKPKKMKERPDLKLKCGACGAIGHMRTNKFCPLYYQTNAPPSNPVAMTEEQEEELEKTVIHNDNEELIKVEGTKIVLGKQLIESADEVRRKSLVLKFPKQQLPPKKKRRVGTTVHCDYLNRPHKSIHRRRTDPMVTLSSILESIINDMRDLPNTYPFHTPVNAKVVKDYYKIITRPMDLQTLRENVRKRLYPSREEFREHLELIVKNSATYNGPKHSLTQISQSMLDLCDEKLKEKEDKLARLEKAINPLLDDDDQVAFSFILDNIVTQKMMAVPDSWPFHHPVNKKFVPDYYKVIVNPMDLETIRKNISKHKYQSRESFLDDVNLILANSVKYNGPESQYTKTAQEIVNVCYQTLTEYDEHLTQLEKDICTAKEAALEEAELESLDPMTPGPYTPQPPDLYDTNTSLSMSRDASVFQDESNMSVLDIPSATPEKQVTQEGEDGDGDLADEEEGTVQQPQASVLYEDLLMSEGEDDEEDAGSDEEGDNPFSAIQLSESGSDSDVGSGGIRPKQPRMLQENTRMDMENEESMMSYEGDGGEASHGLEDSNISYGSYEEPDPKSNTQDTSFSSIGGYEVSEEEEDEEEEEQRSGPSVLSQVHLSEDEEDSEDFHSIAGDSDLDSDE
Sequence of Bromodomain-containing protein 3 (Q15059 whole entry): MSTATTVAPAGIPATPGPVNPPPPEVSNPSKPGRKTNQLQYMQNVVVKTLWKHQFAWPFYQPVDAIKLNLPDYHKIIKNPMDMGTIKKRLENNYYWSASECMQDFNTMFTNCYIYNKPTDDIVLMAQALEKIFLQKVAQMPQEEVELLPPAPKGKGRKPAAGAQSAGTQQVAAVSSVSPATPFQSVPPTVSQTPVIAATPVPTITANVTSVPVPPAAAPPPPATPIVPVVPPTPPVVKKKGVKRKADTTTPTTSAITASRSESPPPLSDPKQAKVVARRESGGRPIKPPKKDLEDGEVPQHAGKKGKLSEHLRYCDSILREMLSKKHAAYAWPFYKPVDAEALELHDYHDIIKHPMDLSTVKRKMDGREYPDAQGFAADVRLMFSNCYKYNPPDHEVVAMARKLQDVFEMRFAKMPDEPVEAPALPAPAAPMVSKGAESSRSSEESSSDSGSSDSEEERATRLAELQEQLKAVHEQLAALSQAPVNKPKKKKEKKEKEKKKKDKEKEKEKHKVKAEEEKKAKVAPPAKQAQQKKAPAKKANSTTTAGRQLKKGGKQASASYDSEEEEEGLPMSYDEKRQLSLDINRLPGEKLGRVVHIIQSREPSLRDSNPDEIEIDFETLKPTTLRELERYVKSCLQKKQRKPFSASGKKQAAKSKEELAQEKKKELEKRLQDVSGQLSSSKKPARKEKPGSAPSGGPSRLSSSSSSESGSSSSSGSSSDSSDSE
Sequence of Misshapen-like kinase 1 (Homo sapiens) (Q8N4C8 whole entry, looked up): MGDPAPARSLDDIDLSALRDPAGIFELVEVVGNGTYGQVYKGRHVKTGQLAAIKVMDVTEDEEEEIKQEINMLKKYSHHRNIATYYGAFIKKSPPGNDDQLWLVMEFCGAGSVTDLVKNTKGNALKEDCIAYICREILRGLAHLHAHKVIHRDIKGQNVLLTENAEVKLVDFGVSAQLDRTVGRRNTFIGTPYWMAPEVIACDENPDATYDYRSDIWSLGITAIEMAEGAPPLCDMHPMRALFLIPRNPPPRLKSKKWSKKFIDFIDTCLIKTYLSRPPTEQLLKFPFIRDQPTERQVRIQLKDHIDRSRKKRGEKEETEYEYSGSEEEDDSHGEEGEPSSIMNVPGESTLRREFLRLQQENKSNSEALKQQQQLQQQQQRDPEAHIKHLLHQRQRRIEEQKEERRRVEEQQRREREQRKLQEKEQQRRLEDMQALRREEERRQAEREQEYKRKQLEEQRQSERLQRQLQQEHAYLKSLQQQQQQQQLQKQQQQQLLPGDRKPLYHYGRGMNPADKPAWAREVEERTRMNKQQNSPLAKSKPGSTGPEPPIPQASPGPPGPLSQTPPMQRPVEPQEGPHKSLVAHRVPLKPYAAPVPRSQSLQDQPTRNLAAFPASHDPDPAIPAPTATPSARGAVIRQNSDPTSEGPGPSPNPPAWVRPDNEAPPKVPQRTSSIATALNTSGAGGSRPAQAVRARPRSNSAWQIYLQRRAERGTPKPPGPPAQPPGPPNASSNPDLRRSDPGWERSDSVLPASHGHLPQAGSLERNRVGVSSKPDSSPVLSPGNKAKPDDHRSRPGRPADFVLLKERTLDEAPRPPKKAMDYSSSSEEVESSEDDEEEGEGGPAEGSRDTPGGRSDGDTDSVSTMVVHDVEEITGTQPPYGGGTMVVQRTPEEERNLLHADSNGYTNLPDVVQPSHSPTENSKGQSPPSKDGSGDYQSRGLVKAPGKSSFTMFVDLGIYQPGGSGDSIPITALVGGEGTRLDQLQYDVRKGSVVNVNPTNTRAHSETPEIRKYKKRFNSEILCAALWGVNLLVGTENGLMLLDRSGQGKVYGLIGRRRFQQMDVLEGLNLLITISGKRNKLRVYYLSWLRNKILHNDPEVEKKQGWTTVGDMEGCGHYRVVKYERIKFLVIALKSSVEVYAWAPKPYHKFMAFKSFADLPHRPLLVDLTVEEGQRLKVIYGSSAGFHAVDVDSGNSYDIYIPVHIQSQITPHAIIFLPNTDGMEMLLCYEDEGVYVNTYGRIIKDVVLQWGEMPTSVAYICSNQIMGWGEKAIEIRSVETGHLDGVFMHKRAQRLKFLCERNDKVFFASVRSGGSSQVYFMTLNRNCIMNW

For `C/C=C/Cn1cc(-c2ccc(C(C)(C)O)cc2OC)c2cc[nH]c2c1=O`, the IC50 was over 20 µM in assay [1]; 20 µM in assay [2]; 20 µM in assay [3]; 20 µM in the assay on KARPAS-422; 20 µM in the assay on NCI-H23; 20 µM in the assay with SCC-3. In addition, the IC50 (in the assay with NCI-H82; in the assay with HCC1806; with HDQ-P1; in [4]; with LS180; in the assay with WiDr) was 20 µM in each case. Besides, the IC50 in the assay with GTL 16 cell line and in the assay with CAL-12T was 20 µM each time. The compound also gave a Kd in assay [5] of 5.5 µM. For the same compound, the inhibition is 2.5% in assay [6], 18% in [7] and 18% in assay [9]. The Activity (in assay [8]; in the assay filed under Rattus norvegicus) was 12% in each case.
`C/C=C/Cn1cc(-c2ccc(C(=O)N3CCOCC3)cc2)c2cc[nH]c2c1=O`: the IC50 in assay [1] amounted to 1.5 µM; in [2], 14.8 µM; in [3], 20 µM; in the assay with KARPAS-422 it was 14.4 µM; in the assay on NCI-H23, 20 µM; in the assay on SCC-3 it was 20 µM. Besides, the IC50 (in the assay on NCI-H82; in the assay with HCC1806; in the assay on HDQ-P1; in assay [4]; with LS180; in the assay with WiDr) was 20 µM throughout. Also, the IC50 in the assay on GTL 16 cell line and in the assay on CAL-12T was 20 µM throughout. This compound also displayed a Kd in assay [5] of 4.4 µM. Further, the inhibition is -2% in assay [6], 1.5% in [7] and 49% in assay [9]. For the same compound, the Activity in assay [8] came out at 10%; in the assay filed under Rattus norvegicus, 11%.
Take `C/C=C/Cn1cc(-c2cc(OC)c(C(=O)N3CCOCC3)cc2OC)c2cc(C)[nH]c2c1=O`: the IC50 was over 20 µM in [1]; 2 µM in assay [2]; 2 µM in assay [3]; 2 µM with KARPAS-422; 2 µM with NCI-H23; 2 µM with SCC-3. The IC50 (with NCI-H82; with HCC1806; with HDQ-P1; in [4]; in the assay with LS180; in the assay with WiDr) was 2 µM throughout. For the same compound, the IC50 with GTL 16 cell line and in the assay on CAL-12T was 2 µM each time. This compound also gave a Kd in [5] of over 10 µM. Moreover, the inhibition in [6] is -4%; in [7] it was 8%; in [9], 9%. Besides, the Activity in assay [8] came out at 16%; in the assay filed under Rattus norvegicus, 17%.
Consider `C/C=C/Cn1cc(-c2cc(OC)c(C(C)(C)O)cc2OC)c2cc(C)[nH]c2c1=O`, for which the IC50 in [1] was over 20 µM. In [5], this compound showed a Kd of over 10 µM.
